From patent publication US10874636B2, “Application of substituted cinnamamide derivatives in preparation of anti-anxiety medication” (TASLY PHARMACEUTICAL GROUP CO., LTD., priority 2016, dated 2020)

Key:
mice = assay: Elevated plus-maze test for mice; type: in vivo, ICR male mice; settings: 10 mg/kg intragastric for 1 week; in words
Experimental: 247 ICR male mice aged 6-8 weeks with the weight of 18-22 g were taken and fed adaptively for 1 week. Then, these mice were evenly divided, at random, into 19 groups based on their weights. Intragastric administration was conducted once a day according to the drugs and dosages listed in Table 1, which lasted for 7 consecutive days. 20 minutes after administration on the 7th day, the elevated plus-maze test was conducted.
The elevated plus-maze (EPM) for mice were composed of two opposite open arms (50 cm×10 cm) and two opposite enclosed arms (50 cm×10 cm×40 cm), wherein upper portions of the enclosed arms were not capped, an open portion of 10 cm×10 cm was located in the middle of the maze, and the maze was 50 cm away from the ground. The test was conducted in a quite environment at a time period ranging from 13:00 to 18:00.
The open-arms entries (OE) and enclosed-arms entries, as well as the residence time in two arms, of the mice, within 5 minutes, were recorded respectively, and the percentage of the open-arms entries (OE %) and that of the open-arms time (OT %) for each group of mice with respect to the total entries into the two arms and the total residence time in the two arms therein were calculated respectively.
Analysis was conducted using SPSS 11.5 software, and data were represented by x±S, the significance of differences between groups was compared using the analysis of variance, differences were significant while P was less than 0.05.

rats = assay: Drinking conflict experiment for rats (Vogel test); type: in vivo, SD male rats; settings: for Effect on water licks of the rats during the punished session compared with the solvent control groups: 5 mg/kg intragastric for 10 days, in words; for Water licks of rats during punished session: 5 mg/kg intragastric once a day for 10 days, test half an hour after final administration, 3 minutes, 0.3 mA, x±S
Experimental: 230 SD male rats with the weight of 180-220 g were taken and fed adaptively for 1 week. Then, these rats were divided, at random, into 19 groups based on their weights, 12-13 rats in each group. Intragastric administration was conducted one a day according to the drugs and dosages listed in Table 2, which lasted for 10 consecutive days. Water deprivation 48 hours before the final administration, and non-punitive drinking training was conducted on the 9th day; on the 10th day, half an hour after the final intragastric administration of all the groups, the punitive experimental test was conducted.
On the first stage (non-punitive drinking training): after water deprivation for 24 hours, the rats were placed in operation boxes individually to explore thoroughly, until they found bottle mouths and began to lick water, water licks of the rats within 3 minutes under the conditions of no electric shock (the condition was set as follows: the strength of electric shock was 0 mA) were automatically recorded by counters, and rats whose water licks were less than 300 were eliminated. On the second stage (punitive experiment): the above rats which were not eliminated were placed in the operation boxes after continuing the water deprivation for 24 hours (48 hours in total). The rats could find the bottle mouths rapidly and begin to lick water, the instruments began to time automatically and imparted one electric shock (the ratio of licks to the number of electric shocks was 20:1) while the water licks reached to 20, wherein the strength of electric shocks was 0.3 mA, lasting for 2 seconds, but these rats may control the length of the time for which they were electrically shocked by keeping away from the bottle mouths. Water licks of the rats during the punished session (3 minutes) were recorded.
Observational indexes of the Vogel drinking conflict model: water licks of the rats during the punished session.

Row | Compound | Effect on open-arms entries of the mice compared with the solvent control groups (mice) | Effect on open-arms time of the mice compared with the solvent control groups (mice) | Effect on water licks of the rats during the punished session compared with the solvent control groups (rats) | Water licks of rats during punished session (rats)
1 | COc1cc(/C=C/C=C/C(=O)NCC(C)C)cc(C(F)(F)F)c1OC [III-13, 5-(5′-trifluoromethyl-3′,4′-dimethoxyphenyl) pentadienoic acid isobutylamide] | increase the open-arms entries of the mice | prolong their open-arms time | increase water licks of the rats during the punished session | 375.67 ± 58.13
2 | N-methyl-(5′-trifluoromethyl-3′,4′-methylenedioxy)-amphetamine hydrochloride [II-16] | increase the open-arms entries of the mice | prolong their open-arms time | increase water licks of the rats during the punished session | 406.56 ± 65.38
